These are literature values, as cited in patent publication US11147270B2, “Pesticide based on formation of formate anion in situ” (priority 2018, dated 2021).

Each structure is given as a SMILES string.

The conditions of the data set: at 20° C.

With `Cl` [hydrochloric acid], the vapor pressure result was “approximately 32452 mmHg”.
